The source of these data is patent US8486960B2, “Formulations and methods for vascular permeability-related diseases or conditions” (Santen Pharmaceutical Co., Ltd., priority 2006, dated 2013).

This data set is described as follows: Rapamycin levels in hamster cheek tissue homogenate by LC/MS. Type of data set: in vivo, golden Syrian hamsters. The conditions noted are these: for Rapamycin assayed concentration, Average: hamster cheek pouch, all samples. From the text: Upon sacrifice of the animals, samples of both of the Hamster cheeks were obtained and frozen at −80 degrees Celsius. The samples were labeled as to the amount of intraperitoneal dose received, and whether they were right (studied with chamber) or left.

Take `CO[C@H]1C[C@@H]2CC[C@@H](C)[C@@](O)(O2)C(=O)C(=O)N2CCCC[C@H]2C(=O)O[C@H]([C@H](C)C[C@@H]2CC[C@@H](O)[C@H](OC)C2)CC(=O)[C@H](C)/C=C(\C)[C@@H](O)[C@@H](OC)C(=O)[C@H](C)C[C@H](C)/C=C/C=C/C=C/1C` [rapamycin]: the “average tissue level of rapamycin in the hamster cheek pouch” value by setting is: (0.1 mg/kg treatment group) 7.37 ng/g; (0.5 mg/kg treatment group) 11.01 ng/g; (2.0 mg/kg treatment group) 40.83 ng/g; (10 mg/kg treatment group) 55.15 ng/g. For the same compound, the “Rapamycin assayed concentration, Average” value runs as follows: (dosing 0.1 mg/kg ip) 7.37 ng/g or pg/mg; (dosing 0.5 mg/kg ip) 11.01 ng/g or pg/mg; (dosing 2 mg/kg ip) 40.83 ng/g or pg/mg; (dosing 10 mg/kg ip) 55.15 ng/g or pg/mg.
